Measured values reported in ChEMBL document CHEMBL1130332, “Synthesis of (+)- and ()-2-methylarachidonyl-2-fluoroethylamide (O-689)” (Bioorg Med Chem Lett, 1997).
Values joined by “and” are separate entries in the source; they are usually repeats but may differ in a detail not shown here. Equal values may be shown once.

Tests used:
[1] = test system: Mus musculus; assay: Tested for hypothermia in mouse upon intravenous administration; format: functional
[2] = target: T1, Cannabinoid receptor 1 (Rattus norvegicus, UniProt P20272); assay: Compound was evaluated for binding affinity towards cannabinoid receptor in rat brain P2 membrane; format: cell membranes
[3] = target: T1, Cannabinoid receptor 1; assay: Compound was evaluated for binding affinity to displace [3H]CP-55940 radioligand from cannabinoid receptor in rat brain P2 membrane; format: cell membranes
[4] = test system: Mus musculus; assay: Tested for in vivo inhibition of locomotor activity in mouse upon intravenous administration; format: functional
[5] = test system: Mus musculus; assay: Tested for ring immobility in mouse upon intravenous administration; format: functional
[6] = test system: Mus musculus; assay: Tested for in vivo […] by tail-flick method in mouse upon intravenous administration; format: functional

T1 sequence (P20272 whole entry): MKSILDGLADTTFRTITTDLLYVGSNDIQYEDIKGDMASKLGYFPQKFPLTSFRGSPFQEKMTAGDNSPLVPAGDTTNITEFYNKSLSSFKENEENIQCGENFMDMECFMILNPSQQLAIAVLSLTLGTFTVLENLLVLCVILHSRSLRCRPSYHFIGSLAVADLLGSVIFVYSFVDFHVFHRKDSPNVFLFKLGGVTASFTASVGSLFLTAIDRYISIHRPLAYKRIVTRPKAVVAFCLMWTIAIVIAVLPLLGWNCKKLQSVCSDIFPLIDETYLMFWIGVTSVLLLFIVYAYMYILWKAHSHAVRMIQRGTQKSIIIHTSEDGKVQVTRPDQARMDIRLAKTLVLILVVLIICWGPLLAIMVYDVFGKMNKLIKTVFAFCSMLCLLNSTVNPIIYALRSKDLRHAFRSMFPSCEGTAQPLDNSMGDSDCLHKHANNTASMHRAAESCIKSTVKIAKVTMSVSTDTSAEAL

| SMILES | ED50 [1] | Ki [2] | Ki [3] | ED50 [4] | ED50 [5] | ED50 [6] |
| --- | --- | --- | --- | --- | --- | --- |
| CCCCC/C=C\C/C=C\C/C=C\C/C=C\CCC(C)C(=O)NCCF (racemic) | 2.73 mg/kg | 5.7 nM | 21.2 nM | 1.85 mg/kg and 4.78 mg/kg | 1.6 mg/kg |  |
| CCCCC/C=C\C/C=C\C/C=C\C/C=C\CCC(C)C(=O)NCCF (single isomer, unassigned; (-)) | 10.1 mg/kg |  | 15.3 nM | 2.3 mg/kg | 2.93 mg/kg | 1.34 mg/kg |
| CCCCC/C=C\C/C=C\C/C=C\C/C=C\CCC(C)C(=O)NCCF (stereo in doubt; (+)-4a) | 2.49 mg/kg |  | 22.4 nM | 10.2 mg/kg | 5.27 mg/kg | 2.56 mg/kg |
